Test results published in publication PMC3541360 (2013).

What was measured:
[1] = test system: MNSG4 (oligo TrMNS-I) (DNA, G4) TGGGTCTGAGGGAGGAGGGGCTGGGGGC; assay: CD melting, 295 nm; details: 100 mM K+; 10 mM Tris-HCl pH 7.4; 5 µM DNA, 10 µM compound; absolute Tm, free DNA 71.4±0.5 °C
[2] = test system: -80 G4 (oligo Tr-80-I) (DNA, G4) CGGGGGCGCGTGAGGGGCGGGGTGGGC; assay: fluorescent intercalator displacement (thiazole orange); details: 60 mM K+; 10 mM potassium cacodylate pH 7.4, 50 mM KCl; 0.25 µM DNA, 0.50 µM thiazole orange displaced
[3] = test system: MNSG4 (oligo TrMNS-I) (DNA, G4) TGGGTCTGAGGGAGGAGGGGCTGGGGGC; assay: as above; details: 60 mM K+; 10 mM potassium cacodylate pH 7.4, 50 mM KCl; 0.25 µM DNA, 0.50 µM thiazole orange displaced

| Tm (with ligand) [1] [°C] | −80 G4DC50 [2] [µM] | MSN1DC50 [3] [µM] | SMILES |
| --- | --- | --- | --- |
| 86.2±2.1 | 0.19 | 0.31 | [Cl-].[Cl-].[Cl-].[Cl-].[Cu+2].[Cu+2].c1ccc(CN(CCOc2cc(-c3ccccn3)nc(-c3ccccn3)c2)Cc2ccccn2)nc1 |
|  | 2.22 | 0.39 | [Cl-].[Cl-].[Pt+2].[Pt+2].c1ccc(CN(CCOc2cc(-c3ccccn3)nc(-c3ccccn3)c2)Cc2ccccn2)nc1 |
|  | 0.55 | 0.76 | [Pt+2].[S-]CCN1CCCCC1.c1ccc(-c2cc(OCCN3CCOCC3)cc(-c3ccccn3)n2)nc1 |
